Holding throughout (type): cell-based
Assay [1] relates to caspase-3 gene in MDA-MB-231 cells. Nature of the assay: RT-PCR gene expression, caspase-3. The settings on record: 48 h treatment, control = 1. The method, then: (§1) As well, there was an apparent increase in caspase-3, showing 3.9-fold more expression than in control cells.
(§2) Fluorometric analysis was used to gauge the level of these genes’ expression. The procedure for the used kit was carried out in accordance with the manufacturer’s instructions, which are detailed in the Supplementary file. […]
(§3) […] at pH 7.4). The flow cytometer was then used to examine the cells […]
(§4) 1.4.Estimation of apoptotic and anti-apoptotic gene markers […]
(§5) such as Bax and caspase-3, as well as anti-apoptotic genes such as Bcl-2, was studied using the BIORAD iScriptTM One-Step RT-PCR kit with SYBR® Green. MDA-MB-231 cells were cultured before being treated for 48 hours […]
(§6) Fluorometric analysis was used to gauge the level of these genes' expression. The procedure for the used kit was carried out in accordance with the manufacturer's instructions, which are detailed as follows:
(§7) 1.4.1. RNA isolation and reverse transcription m RNA isolation iscarried out using an RNeasy extraction kit,up to 1 x 10^7 cells, depending on the cell line. Cells are disrupted in RNeasy Lysis Buffer (RLT buffer), homogenized, then ethanol is added to the lysate, creating conditions that promote selective binding of RNA to the RNeasy membrane. […]

Assay [2] deals with BAX gene in MDA-MB-231 cells. Nature of the assay: RT-PCR gene expression, BAX. The settings on record: 48 h treatment, control = 1. The procedure:
as §1, §2, §3, §4, §5, §6, §7

Assay [3] relates to MDA-MB-231 cells. Kind of assay: Apoptosis screening, annexin V-FITC/PI flow cytometry. Conditions: compared to non-treated control MDA-MB-231 cells. From the text:
(§8) The results are indicated as a dot plot graph with four quadrant images (Figure 5B). […] However, both compounds also raised the necrotic percent by 1.8- and 2.8-fold, respectively, compared to non-treated cells. Overall, these findings implied that compound 7 could exert anticancer activity by producing cell cycle arrest at the G2/M phase and inducing apoptosis.
(§9) An Epics XL-MCL™ Flow Cytometer and Flowing software 2012 were used to count and analyze stained cells. The Supplementary file contains detailed descriptions of the flow cytometric analysis of cell-cycle distribution and cellular apoptosis. […]
(§10) 1.3.Cell cycle and apoptosis screening […]
(§11) investigated using an Ab-139418 propidium iodide flow cytometry kit and an Annexin-V assay and biparametric cytofluorimetric analysis, respectively, as instructed by the manufacturer. IC50s of both 7 and […]
Cytometer and Flowing software were used to count and analyze stained cells. The Supplementary file contains detailed descriptions of the flow cytometric analysis of cell-cycle distribution and cellular apoptosis. […]
1.3.2. Apoptosis screening […]
plate received 1 X 105 conc. breast cancer (MDA-MB-231) cells that were then incubated for 24 hours. The cells […]
with PBS, and stained for 15 min at room temperature in the dark with annexin V-FITC and PI in binding buffer (10 […]
µM HEPES, 140 µM NaCl, and 2.5 µM CaCl2 at pH 7.4). […]
high-quality RNA iseluted in RNase-free water.
1.4.2. Master mix preparation
All the following reagents were mixed together to give a totalvolume (50 μL). 2X SYBR® Green RT-PCR reaction mixture (25 μL), forward primer (10 μM) (1.5 μL), reverse primer (10 μM) (1.5 μL), nuclease-free H2O (11 μL), RNA template (1 pg to 100 ng totalRNA) (10 μL) and iScript reverse transcriptase for One-Step RT-PCR (1 μL).
1.4.3. Amplification protocol
Incubate complete reaction mixture in a real-time thermal detection system (Rotorgene) as follows: cDNA synthesis:
10 min at 50 °C, iScript reverse transcriptase inactivation: 5 min at 95 °C, polymerase chain reaction (PCR) cycling and detection (30–45 cycles): 10 s at 95 °C and 30 s at 55 °C to 60 °C (data collection step) and melt curve analysis:
1 min at95 °C and 1 min at55 °C and 10 s at55 °C (80 cycles, increasing each by 0.5 °C each cycle).

The test system of assay [4] is Bcl-2 gene in MDA-MB-231 cells. Nature of the assay: RT-PCR gene expression, Bcl-2. The settings on record: 48 h treatment, control = 1. The method, then:
as §1, §2, §3, §4, §5, §6, §7

The test system of assay [5] is MDA-MB-231 cells. Nature of the assay: Cell cycle analysis, propidium iodide flow cytometry. The settings on record: treated at IC50 concentration, 48 h.
Text: as §8, §9, §10, §11
Cytometer and Flowing software were used to count and analyze stained cells. The Supplementary file contains detailed descriptions of the flow cytometric analysis of cell-cycle distribution and cellular apoptosis.
1.3.1. Cell cycle analysis […]
a six-well plate containing MDA-MB-231 breast cancer cells was seeded with 1 X 10^5 cells per well and then […]
Following that, cells were gathered and fixed in ice-cold 70% ethanol at 4 °C for 12 hours. The cells were then rinsed with cold Phosphate Buffer Saline (PBS) and incubated for 30 minutes at 37°C in 0.5 mL of PBS after the ethanol was removed. Propidium iodide was used to stain the cells for 30 min while they were in the dark. DNA content was determined using a flow cytometer. […]

Where “and” joins values, the source holds several entries; their conditions need not be identical. Equal entries are not always repeated.

The record followed here is PMC10535864, “Novel Aminopyrimidine-2,4-diones, 2-Thiopyrimidine-4-ones, and 6-Arylpteridines as Dual-Target Inhibitors of BRD4/PLK1: Design, Synthesis, Cytotoxicity, and Computational Studies” (Pharmaceuticals, 2023).

Take `Cn1c(SCC(=O)c2ccccc2)nc(=O)c(/N=C(/CBr)c2ccccc2)c1N` [Compound 7, (E)-6-Amino-5-((2-bromo-1-phenylethylidene)amino)-1-methyl-2-((2-oxo-2-phenylethyl)thio)pyrimidin-4(1H)-one]: the “Gene expression Caspase-3 (apoptotic gene)” value in assay [1] was 3.9 fold and 3.904 fold. Besides, the “Gene expression BAX (apoptotic gene)” value in assay [2] is 7.3 fold and 7.325 fold. Moreover, in assay [3], the “increase in early apoptosis” value was 58.8 fold, the “increase in total apoptosis” value was 19.3 fold and the “rise of necrotic percent” value was determined as 1.8 fold. The “Gene expression Bcl-2 (anti-apoptotic gene)” value in assay [4] was 0.30 fold and 0.301 fold. The “DNA content % at cell cycle phase %G2/M” value in assay [5] (control 9.19%) turned out to be 22.36%. The “DNA content % at cell cycle phase %S” value in assay [5] (control 29.53%) was 28.02%. The “DNA content % at cell cycle phase %G0/G1” value in assay [5] (control 61.28%) turned out to be 49.62%.
